We go through 2 compounds from patent US20240360194A1, “New Peptides as Potent and Selective GIP Receptor Agonists” (Sanofi, priority 2021, published 2024).

Data set [1] addresses human GLP-1 receptor (hGLP-1R) (Homo sapiens, UniProt P43220). Kind of data set: Binding assay, displacement of [125I]GLP-1 from HEK-293 membranes over-expressing GLP-1R (SPA). The settings on record: [125I]GLP-1 displacement. A digest of the protocol:
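Membranes from HEK-293 cells over-expressing human GIPR or GLP-1R, isolated by homogenising, sonicating and ultracentrifuging at 100000×g into HEPES/EDTA/NaCl buffer with protease inhibitors, were used for binding.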
On the technique in general: In a radioligand displacement assay an active substance lowers the binding of a labelled ligand.

Data set [2] concerns the target T1, human GIP receptor (hGIPR) (Homo sapiens, UniProt P48546).
T1 sequence (P48546 22-466): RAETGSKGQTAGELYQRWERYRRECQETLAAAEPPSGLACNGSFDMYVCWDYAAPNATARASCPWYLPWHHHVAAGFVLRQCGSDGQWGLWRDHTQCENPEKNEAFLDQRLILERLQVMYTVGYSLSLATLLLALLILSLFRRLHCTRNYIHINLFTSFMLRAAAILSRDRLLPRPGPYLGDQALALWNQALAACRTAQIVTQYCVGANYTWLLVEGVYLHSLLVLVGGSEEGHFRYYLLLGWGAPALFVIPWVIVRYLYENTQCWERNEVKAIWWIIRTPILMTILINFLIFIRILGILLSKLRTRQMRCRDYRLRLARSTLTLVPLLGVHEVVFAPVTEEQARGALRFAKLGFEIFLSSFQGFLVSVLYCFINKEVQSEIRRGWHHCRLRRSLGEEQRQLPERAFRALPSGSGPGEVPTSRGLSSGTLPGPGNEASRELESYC
Kind of data set: In vitro cellular cAMP assay for GIP receptor efficacy (HEK-293 cell line over-expressing receptor). The settings on record: EC50 hGIPR 0.1% BSA, HEK-293, 0.1% BSA. Format: cell-based. On the technique in general: cAMP levels reflect the balance of adenylyl cyclase and phosphodiesterase activity.

Data set [3] in a line: Chemical stability assessment (UHPLC-UV purity loss on storage in solution). It counts as physicochemical. The method, boiled down:
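Peptides dissolved at ~300 μM (purity-corrected) in 20 mM phosphate pH 7.4, or 8 mM phosphate pH 7.4 with 14 mg/ml propylene glycol and 5.5 mg/ml phenol; filtered, stored 28 days at 5 and 40 °C. Supernatant analysed by UHPLC-UV; stability expressed as relative purity loss.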

The nature of data set [4]: Solubility assessment (UHPLC-UV of supernatant, target 10 mg/ml). Format: physicochemical. The settings on record: read-out: Soluble amount. The method, boiled down:
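Peptides at 10 mg/ml (purity-corrected) in 100 mM phosphate pH 7.4, optionally with 2.7 mg/ml m-cresol; gentle agitation 1 h, then 5° C. overnight (24 h). Supernatant after 15 min centrifugation at 2500 RCF quantified by UHPLC-UV, with sequence-based extinction coefficients.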

Data set [5] is described as follows: ThT assay for the assessment of physical stability (fibrillation). It counts as physicochemical. The note with it: ThT buffer system A: 100 mM phosphate buffer pH 7.4; 3 mg/ml, 37° C., shaking. An excerpt: Low physical stability of a peptide solution may lead to amyloid fibril formation, which is observed as well-ordered, thread-like macromolecular structures in the sample, which eventually may lead to gel formation. Thioflavin T (ThT) is widely used to visualize and quantify the presence of misfolded protein aggregates [Biancalana et al., Biochim. Biophys. Acta 2010, 1804(7), 1405]. […] Enzymol. 1999, 309, 274]. The time course for fibril formation often follows the characteristic shape of a sigmoidal curve and can be separated into three regions: a lag phase, a fast growth phase, and a plateau phase. The typical fibril formation process starts with the lag phase in which the amount of partially folded peptide turned into fibrils is not significant enough to be detected. The lag-time corresponds to the time the critical mass of the nucleus is built. Afterwards, a drastic elongation phase follows, and fibril concentration increases rapidly. Investigations were carried out to determine fibrillation tendencies under stress conditions by shaking at 37° C. within Fluoroskan Ascent FL or Fluoroskan Ascent. For the tests in Fluoroskan Ascent (FL), 200 μl sample were placed into a 96-well mictrotiter plate PS, flat bottom, Greiner Fluotrac No. 655076. Plates were sealed with Scotch Tape (Qiagen). Samples were stressed by continuous cycles of 10 sec shaking at 960 rpm and 50 sec rest period at 37° C. The kinetic was monitored by measuring fluorescence intensity every 20 min. Peptides were diluted in a buffer system to a final concentration of 3 mg/ml. 20 μl of a 10.1 mM ThT solution in H2O were added to 2 ml of peptide solution to receive a final concentration of 100 μM ThT. For each sample eight replicates were tested. • ThT buffer system A) 100 mM phosphate buffer pH 7.4 • ThT buffer system B) 100 mM phosphate buffer pH 7.4, 2.7 mg/ml m-cresol Lag time in hours (h) in Thioflavin T (ThT) assay of peptide samples was determined in ThT buffer system A as described in Methods.

Where [6] appears, read: Chemical stability buffer system A: 20 mM phosphate buffer pH 7.4, ~300 μM.
Setting [7] is: 100 mM phosphate buffer pH 7.4 (solubility buffer system A), pH 7.4, Solubility buffer system A: 100 mM phosphate buffer pH 7.4.
Where [8] appears, read: pH 7.4, Solubility buffer system C: 100 mM phosphate buffer pH 7.4, 2.7 mg/ml m-cresol.

Converted amounts (≈) assume the structure as drawn. Like-named read-outs stand apart in the source and are kept apart here.

Chain of human GLP-1 receptor (hGLP-1R) (P43220 24-463): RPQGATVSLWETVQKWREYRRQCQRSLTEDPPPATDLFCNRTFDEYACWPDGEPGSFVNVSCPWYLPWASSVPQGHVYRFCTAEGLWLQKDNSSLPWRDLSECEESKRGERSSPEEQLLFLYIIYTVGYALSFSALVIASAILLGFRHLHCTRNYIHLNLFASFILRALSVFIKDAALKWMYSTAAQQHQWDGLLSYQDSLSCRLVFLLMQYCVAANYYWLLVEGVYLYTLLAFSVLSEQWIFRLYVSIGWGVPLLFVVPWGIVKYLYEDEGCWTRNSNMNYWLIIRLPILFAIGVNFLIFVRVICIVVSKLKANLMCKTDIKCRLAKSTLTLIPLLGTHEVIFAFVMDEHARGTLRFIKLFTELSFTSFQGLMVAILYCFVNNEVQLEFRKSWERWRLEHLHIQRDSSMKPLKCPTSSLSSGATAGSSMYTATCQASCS

For the compound `CC[C@H](C)[C@H](NC(=O)[C@H](Cc1ccccc1)NC(=O)[C@H](CCC(=O)O)NC(=O)[C@H](CCC(=O)O)NC(=O)[C@H](CCC(N)=O)NC(=O)[C@H](Cc1c[nH]cn1)NC(=O)[C@@H](NC(=O)[C@H](CCCNC(=N)N)NC(=O)[C@H](CC(=O)O)NC(=O)[C@H](CCCCNC(=O)COCCOCCNC(=O)COCCOCCNC(=O)CC[C@H](NC(=O)CCCCCCCCCCCCCCCCC(=O)O)C(=O)O)NC(=O)C(C)(C)NC(=O)[C@@H](NC(=O)[C@H](CO)NC(=O)[C@H](CC(C)C)NC(=O)[C@H](CC(=O)O)NC(=O)[C@H](CO)NC(=O)[C@@H](NC(=O)[C@H](Cc1ccccc1)NC(=O)[C@@H](NC(=O)CNC(=O)[C@H](CCC(=O)O)NC(=O)C(C)(C)NC(=O)[C@@H](N)Cc1ccc(O)cc1)[C@@H](C)O)[C@@H](C)CC)[C@@H](C)CC)[C@@H](C)CC)C(=O)N[C@@H](CCC(=O)O)C(=O)N[C@@H](Cc1c[nH]c2ccccc12)C(=O)N[C@@H](CC(C)C)C(=O)N[C@@H](CC(C)C)C(=O)N[C@@H](C)C(=O)N[C@@H](CCC(N)=O)C(=O)N[C@@H](CCCNC(=N)N)C(=O)NCC(N)=O` [SEQ ID NO: 4, H2N-Y-Aib-E-G-T-F-I-S-D-L-S-I-Aib-K[{AEEA}2-gGlu-C18OH]-D-R-I-H-Q-E-E-F-I-E-W-L-L-A-Q-R-G-NH2], the 50% inhibitory concentration (IC50) (in general, the midpoint of a concentration-inhibition curve) in data set [1] is 308 nM. Moreover, the midpoint of the response in data set [2], the EC50, lay at 0.0208 nM. Also, the “Relative purity loss over 28 days at 40° C.” value in data set [3] (setting [6]) was 5.1%. In addition, in data set [4] (setting [7]), the solubility at 24 h is more than 30000 µg/mL. Further, in data set [4] (setting [8]), the solubility at 24 h is more than 8700 µg/mL. In data set [5], the “Increase in FI” value was “no” and the “Lag time before increase” value is more than 45 h.

Take `CC[C@H](C)[C@H](NC(=O)[C@H](CCCNC(=N)N)NC(=O)[C@H](CC(=O)O)NC(=O)[C@H](CCCCNC(=O)COCCOCCNC(=O)COCCOCCNC(=O)CC[C@H](NC(=O)CCCCCCCCCCCCCCCCC(=O)O)C(=O)O)NC(=O)C(C)(C)NC(=O)[C@@H](NC(=O)[C@H](CO)NC(=O)[C@H](CC(C)C)NC(=O)[C@H](CC(=O)O)NC(=O)[C@H](CO)NC(=O)[C@@H](NC(=O)[C@H](Cc1ccccc1)NC(=O)[C@@H](NC(=O)CNC(=O)[C@H](CCC(=O)O)NC(=O)C(C)(C)NC(=O)[C@@H](N)Cc1ccc(O)cc1)[C@@H](C)O)[C@@H](C)CC)[C@@H](C)CC)C(=O)N[C@@H](Cc1c[nH]cn1)C(=O)N[C@@H](CCC(N)=O)C(=O)NC(C)(C)C(=O)N[C@@H](CCC(=O)O)C(=O)N[C@@H](Cc1ccccc1)C(=O)N[C@H](C(=O)N[C@@H](CCC(=O)O)C(=O)N[C@@H](Cc1c[nH]c2ccccc12)C(=O)N[C@@H](CC(C)C)C(=O)N[C@@H](CC(C)C)C(=O)N[C@@H](C)C(=O)N[C@@H](CCC(N)=O)C(=O)N[C@@H](CCCNC(=N)N)C(=O)NCC(N)=O)[C@@H](C)CC` [SEQ ID NO: 6, H2N-Y-Aib-E-G-T-F-I-S-D-L-S-I-Aib-K[{AEEA}2-gGlu-C18OH]-D-R-I-H-Q-Aib-E-F-I-E-W-L-L-A-Q-R-G-NH2]: in data set [1], the IC50 worked out at 156 nM. The EC50 (in general, the midpoint of the concentration-response curve) in data set [2] is 0.00593 nM. For the same compound, the “Relative purity loss over 28 days at 40° C.” value in data set [3] (setting [6]) was 5.6%; in data set [3] (Chemical stability buffer system B: 8 mM phosphate buffer pH 7.4, 14 mg/ml propylene glycol, 5.5 mg/ml phenol) it was 5.9%. Moreover, the solubility at 24 h is more than 9000 µg/mL in data set [4] (setting [7]) and 1800 µg/mL (≈ 415 µM) in data set [4] (setting [8]). The “Increase in FI” value in data set [5] was “no”. Moreover, the “Lag time before increase” value in data set [5] is on record as more than 45 h.
